Like-named read-outs stand apart in the source and are kept apart here.

The target in assay [1] is radiolabelled octapeptide repeat *acetyl[…]amide (SEQ ID NO:2) (Homo sapiens, UniProt P04156). Conditions: for % unbound [14C]: pH 7.4.
In assay [2] the target is radiolabelled octapeptide repeat peptide *acetyl…amide.
The target is the same in assay [3]. The source holds these as a separate data set.

Take FYVFTA [90/98]: the “% unbound [14C]” value in assay [1] worked out at 82%.

Consider GFFFWW [Peptide 89], for which, in assay [1], the “binding of octapeptide to resin (in words)” value is “highest affinity binder” and the “% unbound [14C]” value worked out at 23%.

Turning to HKEQGA [Peptide 119], the “% unbound [14C]” value in assay [1] turned out to be 91%.

With IFFWIK [Peptide 112], the “% unbound [14C]” value in assay [1] is 77%.

Consider IQIWIF [Peptide 110], for which the “% unbound [14C]” value in assay [1] worked out at 85%.

Regarding LAWFWR [Peptide 88], the “% unbound [14C]” value in assay [1] came to 90%.

Regarding LEIRLA [Peptide 93], in assay [1], the “% unbound [14C]” value was 96%.

As for LLIWIP [Peptide 84], the “% unbound [14C]” value in assay [1] is 89%.

On to LLLVIA [Peptide 94], for which the “% unbound [14C]” value in assay [1] came out at 83%.

As for LRVIIS [Peptide 96], in assay [1], the “% unbound [14C]” value turned out to be 90%.

On to LWWLFV [Peptide 111], for which the “% unbound [14C]” value in assay [1] was found to be 85%.

Consider PFHPG [Peptide 100], for which, in assay [1], the “% unbound [14C]” value is 88%.

Take QLGHQW [Peptide 97]: the “% unbound [14C]” value in assay [1] is 85%.

As for QWWFII [Peptide 114], the “% unbound [14C]” value in assay [1] worked out at 87%.

With RWIISL [Peptide 113], the “% unbound [14C]” value in assay [1] is 89%.

As for SFPYYY [Peptide 92], the “% unbound [14C]” value in assay [1] worked out at 90%.

Take SLEEYV [Peptide 95]: the “% unbound [14C]” value in assay [1] turned out to be 89%.

As for SNYGPY [Peptide 99], the “% unbound [14C]” value in assay [1] turned out to be 79%.

Turning to TGIPII [Peptide 118], in assay [1], the “% unbound [14C]” value is 88%.

Consider VFEYIK [Peptide 115], for which the “% unbound [14C]” value in assay [1] is listed as 87%.

Consider WEFYWF [Peptide 86], for which the “% unbound [14C]” value in assay [1] is reported as 76%.

As for WFPHFF [Peptide 102], the “% unbound [14C]” value in assay [1] stood at 64%.

Consider WIPPYN [Peptide 101], for which the “% unbound [14C]” value in assay [1] was 84%.

With WLVWIA [Peptide 116], in assay [1], the “% unbound [14C]” value turned out to be 85%.

Consider WLYWIP [Peptide 85], for which the “% unbound [14C]” value in assay [1] turned out to be 90%.

Regarding YFIWWE [Peptide 91], in assay [1], the “% unbound [14C]” value turned out to be 58%.

As for YVFNWY [Peptide 87], the “% unbound [14C]” value in assay [1] is listed as 45%.

Take YWFIYI [Peptide 117]: the “% unbound [14C]” value in assay [1] was 83%.

In assay [2], “peptide 97, QLGHQW, on Toyopearl resin, free amino terminal” had a % unbound [14C] of 85%.

Take “peptide 101, WIPPYN, on Toyopearl resin, free amino terminal”: the % unbound [14C] in assay [2] was found to be 84%.

On to “peptide 110, IQIWIF, on Toyopearl resin, free amino terminal”, for which, in assay [2], the % unbound [14C] amounted to 85%.

The molecule “peptide 111, LWWLFV, on Toyopearl resin, free amino terminal” gave a % unbound [14C] in assay [2] of 85%.

“peptide 116, WLVWIA, on Toyopearl resin, free amino terminal” gave a % unbound [14C] in assay [2] of 85%.

In assay [3], WLYWIP (modifications not checked) [peptide 85, WLYWIP, on Toyopearl resin, free amino terminal] returned a % unbound [14C] of 90%.

Molecule LRVIIS (modifications not checked) [peptide 96, LRVIIS, on Toyopearl resin, free amino terminal] displayed a % unbound [14C] in assay [3] of 90%.

On to LLLVIA (modifications not checked) [peptide 94, LLLVIA, on Toyopearl resin, free amino terminal], for which the % unbound [14C] in assay [3] stood at 83%.

In the case of SNYGPY (modifications not checked) [peptide 99, SNYGPY, on Toyopearl resin, free amino terminal], in assay [3], the % unbound [14C] turned out to be 79%.

In assay [3], SLEEYV (modifications not checked) [peptide 95, SLEEYV, on Toyopearl resin, free amino terminal] showed a % unbound [14C] of 89%.

WEFYWF (modifications not checked) [peptide 86, WEFYWF, on Toyopearl resin, free amino terminal]: in assay [3], the % unbound [14C] is 76%.

In assay [3], HKEQGA (modifications not checked) [peptide 119, HKEQGA, on Toyopearl resin, free amino terminal] showed a % unbound [14C] of 91%.

Take YWFIYI (modifications not checked) [peptide 117, YWFIYI, on Toyopearl resin, free amino terminal]: the % unbound [14C] in assay [3] turned out to be 83%.

As for TGIPII (modifications not checked) [peptide 118, TGIPII, on Toyopearl resin, free amino terminal], in assay [3], the % unbound [14C] was found to be 88%.

LEIRLA (modifications not checked) [peptide 93, LEIRLA, on Toyopearl resin, free amino terminal] yielded a % unbound [14C] in assay [3] of 96%.

As to SFPYYY (modifications not checked) [peptide 92, SFPYYY, on Toyopearl resin, free amino terminal], in assay [3], the % unbound [14C] was 90%.

As for YVFNWY (modifications not checked) [peptide 87, YVFNWY, on Toyopearl resin, free amino terminal], the % unbound [14C] in assay [3] turned out to be 45%.

With QWWFII (modifications not checked) [peptide 114, QWWFII, on Toyopearl resin, free amino terminal], in assay [3], the % unbound [14C] worked out at 87%.

For the molecule YFIWWE (modifications not checked) [peptide 91, YFIWWE, on Toyopearl resin, free amino terminal], the % unbound [14C] in assay [3] is 58%.

In turn, FYVFTA (modifications not checked) [peptide 90/98, FYVFTA, on Toyopearl resin, free amino terminal] yielded a % unbound [14C] in assay [3] of 82%.

In assay [3], LAWFWR (modifications not checked) [peptide 88, LAWFWR, on Toyopearl resin, free amino terminal] displayed a % unbound [14C] of 90%.

In assay [3], LLIWIP (modifications not checked) [peptide 84, LLIWIP, on Toyopearl resin, free amino terminal] registered a % unbound [14C] of 89%.

Molecule GFFFWW (modifications not checked) [peptide 89, GFFFWW, on Toyopearl resin, free amino terminal] registered a % unbound [14C] in assay [3] of 23%.

In assay [3], RWIISL (modifications not checked) [peptide 113, RWIISL, on Toyopearl resin, free amino terminal] came in with a % unbound [14C] of 89%.

In the case of IFFWIK (modifications not checked) [peptide 112, IFFWIK, on Toyopearl resin, free amino terminal], in assay [3], the % unbound [14C] turned out to be 77%.

PFHPG (modifications not checked) [peptide 100, PFHPG, on Toyopearl resin, free amino terminal]: in assay [3], the % unbound [14C] was found to be 88%.

WFPHFF (modifications not checked) [peptide 102, WFPHFF, on Toyopearl resin, free amino terminal] yielded a % unbound [14C] in assay [3] of 64%.

Regarding VFEYIK (modifications not checked) [peptide 115, VFEYIK, on Toyopearl resin, free amino terminal], the % unbound [14C] in assay [3] was 87%.

The values above are taken from patent US20040186273A1 (V.I. Technologies, Inc., priority 2000, published 2004).
